Structures are written as SMILES.

In this test the target is T1, farnesoid X receptor alpha (Fxrα) (Oryzias latipes, UniProt H2M6M7).
T1 sequence (H2M6M7 201-485): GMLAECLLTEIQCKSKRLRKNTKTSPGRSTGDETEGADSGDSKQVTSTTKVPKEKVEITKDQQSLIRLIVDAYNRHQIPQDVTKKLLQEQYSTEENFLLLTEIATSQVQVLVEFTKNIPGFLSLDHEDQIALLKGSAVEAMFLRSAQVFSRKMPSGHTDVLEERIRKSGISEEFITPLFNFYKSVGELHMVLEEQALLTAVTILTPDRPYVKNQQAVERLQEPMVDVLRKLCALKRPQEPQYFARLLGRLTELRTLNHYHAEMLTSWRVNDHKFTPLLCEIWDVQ
T1 sequence (Q9UBK2 1-798 partner): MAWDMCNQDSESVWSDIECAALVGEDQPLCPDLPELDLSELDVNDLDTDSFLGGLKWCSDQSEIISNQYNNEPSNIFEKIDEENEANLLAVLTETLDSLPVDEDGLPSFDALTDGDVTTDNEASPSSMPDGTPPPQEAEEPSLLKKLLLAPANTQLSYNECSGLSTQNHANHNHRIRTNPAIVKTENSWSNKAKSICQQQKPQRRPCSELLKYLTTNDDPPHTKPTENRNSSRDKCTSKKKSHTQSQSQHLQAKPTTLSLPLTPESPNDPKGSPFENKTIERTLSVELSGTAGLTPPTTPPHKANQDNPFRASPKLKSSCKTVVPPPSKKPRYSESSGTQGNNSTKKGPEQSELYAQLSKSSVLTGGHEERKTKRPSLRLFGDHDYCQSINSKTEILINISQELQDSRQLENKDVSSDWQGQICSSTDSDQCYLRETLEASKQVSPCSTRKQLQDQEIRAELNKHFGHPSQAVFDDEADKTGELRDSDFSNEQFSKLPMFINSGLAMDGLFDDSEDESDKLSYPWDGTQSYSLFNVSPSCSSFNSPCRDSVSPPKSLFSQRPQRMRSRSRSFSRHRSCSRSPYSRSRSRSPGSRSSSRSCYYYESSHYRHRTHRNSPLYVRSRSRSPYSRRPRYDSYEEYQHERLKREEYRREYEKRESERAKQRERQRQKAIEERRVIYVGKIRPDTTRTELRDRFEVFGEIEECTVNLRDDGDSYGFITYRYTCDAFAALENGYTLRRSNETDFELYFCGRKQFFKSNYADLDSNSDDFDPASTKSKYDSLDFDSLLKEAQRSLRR
The experiment in a line: Gal4-LBD luciferase reporter in PLHC-1 cells at […]. The conditions noted are these: read-out: Gal4-LBD luciferase reporter in PLHC-1 cells at 100 μM.

`C[C@H](CCC(=O)O)[C@H]1CC[C@H]2[C@@H]3CC[C@@H]4C[C@H](O)CC[C@]4(C)[C@H]3CC[C@]12C` [lithocholic acid]: the fold induction at 100 µM was found to be 10.7.
`C[C@H](CCC(=O)NCCS(=O)(=O)O)[C@H]1CC[C@H]2[C@@H]3CC[C@@H]4C[C@H](O)CC[C@]4(C)[C@H]3CC[C@]12C` [taurine conjugate of LCA]: the fold induction at 100 µM came to 10.5.

For the origin of these results see paper PMC2874645 (Aquatic toxicology (Amsterdam, Netherlands), 2010).
